{"source": "patent US20240358693A1", "about": "“METHODS OF TREATING PAIN” (Aisa Pharma, Inc., priority 2023, published 2024)", "system": "participants with SSc-RP", "experiment": "Scleroderma Health Assessment Questionnaire (SHAQ): disability indices and visual analog scales", "assay_type": "in vivo, human", "conditions": "Day 12", "from_the_text": "The standard, validated, patient reported outcome measures tool for SSc patients, the Scleroderma Health Assessment Questionnaire (SHAQ), will be used to assess the participant qualify of life. Details are attached in the Appendix. The participant quality of life will be scored, and a disability index calculated for each questionnaire completed by the patient at Screening and each in-clinic visit. The absolute change in participant quality of life from baseline to the end of each dosing period will be calculated similar to frequency data as before.\nThe SHAQ includes a Raynaud's VAS, which will be reported at screening and each in-clinic visit. The absolute change in Raynaud-VAS, assessed by the participants response to the SHAQ question ‘In the past 7 days, how much have your Raynaud's interfered with your daily activities?’ at baseline and the end of each dosing period will be calculated similar to frequency data as before.\nThe SHAQ is used to calculate a Disability Index to assess the participant qualify of life. The eight categories assessed by the Disability Index are 1) dressing and grooming, 2) arising, 3) eating, 4) walking, 5) hygiene, 6) reach, 7) grip, and 8) common daily activities. For each of these categories, patients report the amount of difficulty they have in performing two or three specific activities.\nThere are four possible responses for the Disability Index questions: • Without any difficulty=0 • With some difficulty=1 • With much difficulty=2 • Unable to do=3. • The highest score reported by the patient for any component question of the eight categories determines the score for that category. • If a component question is left blank or the response is too ambiguous to assign a score, then the score for that category is determined by the remaining completed question(s). • If all component questions are blank or if more than one answer is given, then follow up with the respondent is required. • If the respondent's mark is between the response columns, then move it to the closest one. If it's directly between the two, move it to the higher one.\nEach of the disability items on the SHAQ has a companion aids/devices variable that is used to record what type(s) of assistance, if any, the participant uses for his/her usual activities. These variables (see below) are coded as follows: • 0=No assistance is needed. • 1=A special device is used by the patient in his/her usual activities. • 2=The patient usually needs help from another person. • 3=The patient usually needs BOTH a special device AND help from another person.\nThe scoring variables and scoring rules permit the computation of two disability indices, the Standard Disability Index and the Alternative Disability Index.\nThis question results in a new set of category scores that are computed by adjusting the score for each category, if necessary, based on the patient's use of an aid or device or assistance for that category. If either devices and/or help from another person are checked for a category, the score is set to “2”, unless the score is already “3” (i.e., scores of “0” or “1” are increased to “2”). For example, if the highest score for the dressing category is “1”, and the patient says they use a device for dressing, the computed category score would be “2”. The sum of the computed categories scores is then calculated and divided by the number of categories answered. This gives a score in the 0 to 3 range.\nThe aid and device variables are not used to calculate the alternative disability index; it is calculated by adding the scores for each of the categories and dividing by the number of categories answered. This gives a score in the 0 to 3 range.\nThe standard, validated, patient reported outcome measures tool for SSc patients, the SHAQ, was collected at the time points specified in the study schedules (FIG. 2 and FIGS. 4A and 4B) to assess the participant's quality of life. The SHAQ included a Raynaud's VAS that will also be reported separately.", "key": {"[1]": {"conditions": "Pooled Cilnidipine 20 mg and Cilnidipine 20 mg + Tadalafil 5 mg (N = 8), PP Population Part A"}, "[2]": {"conditions": "Pooled Cilnidipine (N = 8), PP Population Part A"}, "[3]": {"conditions": "mITT Part A, SSc patients, cilnidipine 10 mg and/or tadalafil 5 mg as in the arm"}}}
{"smiles": "COCCOC(=O)C1=C(C)NC(C)=C(C(=O)OC/C=C/c2ccccc2)C1c1cccc([N+](=O)[O-])c1", "note": "(stereo not shown) [Cilnidipine, cilnidipine]", "values": [{"measurement": "SHAQ Visual Analogue Scale - Pain, Change from Baseline, Median", "setting": "[1]", "value": "−0.500"}, {"measurement": "SHAQ Visual Analogue Scale - Pain, Percent Change from Baseline, Mean", "setting": "[1]", "value": "−25.85", "unit": "%"}, {"measurement": "SHAQ Visual Analogue Scale - Pain, Percent Change from Baseline, Median", "setting": "[1]", "value": "−48.78", "unit": "%"}, {"measurement": "SHAQ Visual Analogue Scale - Raynaud's, Change from Baseline, Mean", "setting": "[1]", "value": "−1.013"}, {"measurement": "SHAQ Visual Analogue Scale - Raynaud's, Change from Baseline, Median", "setting": "[1]", "value": "−0.650"}, {"measurement": "SHAQ Visual Analogue Scale - Raynaud's, Percent Change from Baseline, Mean", "setting": "[1]", "value": "−32.40", "unit": "%"}, {"measurement": "SHAQ Visual Analogue Scale - Raynaud's, Percent Change from Baseline, Median", "setting": "[1]", "value": "−37.35", "unit": "%"}, {"measurement": "SHAQ Visual Analogue Scale - Breathing Problems, Change from Baseline, Mean", "setting": "[2]", "value": "−0.388"}, {"measurement": "SHAQ Visual Analogue Scale - Breathing Problems, Change from Baseline, Median", "setting": "[2]", "value": 0.000}, {"measurement": "SHAQ Visual Analogue Scale - Breathing Problems, Percent Change from Baseline, Mean", "setting": "[2]", "value": "−0.22", "unit": "%"}, {"measurement": "SHAQ Visual Analogue Scale - Breathing Problems, Percent Change from Baseline, Median", "setting": "[2]", "value": "−16.00", "unit": "%"}, {"measurement": "SHAQ Visual Analogue Scale - Finger Ulcers, Change from Baseline, Mean", "setting": "[2]", "value": "−0.643"}, {"measurement": "SHAQ Visual Analogue Scale - Finger Ulcers, Change from Baseline, Median", "setting": "[2]", "value": 0.000}, {"measurement": "SHAQ Visual Analogue Scale - Finger Ulcers, Percent Change from Baseline, Mean", "setting": "[2]", "value": "−17.08", "unit": "%"}, {"measurement": "SHAQ Visual Analogue Scale - Finger Ulcers, Percent Change from Baseline, Median", "setting": "[2]", "value": "−50.82", "unit": "%"}, {"measurement": "SHAQ Visual Analogue Scale - Intestinal Problems, Change from Baseline, Mean", "setting": "[2]", "value": "−0.863"}, {"measurement": "SHAQ Visual Analogue Scale - Intestinal Problems, Change from Baseline, Median", "setting": "[2]", "value": "−0.050"}, {"measurement": "SHAQ Visual Analogue Scale - Intestinal Problems, Percent Change from Baseline, Mean", "setting": "[2]", "value": "−43.69", "unit": "%"}, {"measurement": "SHAQ Visual Analogue Scale - Intestinal Problems, Percent Change from Baseline, Median", "setting": "[2]", "value": "−66.06", "unit": "%"}, {"measurement": "SHAQ Visual Analogue Scale - Overall Disease Severity, Change from Baseline, Mean", "setting": "[2]", "value": "−1.450"}, {"measurement": "SHAQ Visual Analogue Scale - Overall Disease Severity, Change from Baseline, Median", "setting": "[2]", "value": "−1.550"}, {"measurement": "SHAQ Visual Analogue Scale - Overall Disease Severity, Percent Change from Baseline, Mean", "setting": "[2]", "value": "−61.10", "unit": "%"}, {"measurement": "SHAQ Visual Analogue Scale - Overall Disease Severity, Percent Change from Baseline, Median", "setting": "[2]", "value": "−60.00", "unit": "%"}, {"measurement": "SHAQ Visual Analogue Scale - Pain, Change from Baseline, Mean", "setting": "[2]", "value": "−0.375"}, {"measurement": "SHAQ Visual Analogue Scale - Pain, Change from Baseline, Median", "setting": "[2]", "value": "−0.250"}, {"measurement": "SHAQ Visual Analogue Scale - Pain, Percent Change from Baseline, Mean", "setting": "[2]", "value": "−23.98", "unit": "%"}, {"measurement": "SHAQ Visual Analogue Scale - Pain, Percent Change from Baseline, Median", "setting": "[2]", "value": "−41.18", "unit": "%"}, {"measurement": "SHAQ Visual Analogue Scale - Raynaud's, Change from Baseline, Mean", "setting": "[2]", "value": "−0.438"}, {"measurement": "SHAQ Visual Analogue Scale - Raynaud's, Change from Baseline, Median", "setting": "[2]", "value": "−0.600"}, {"measurement": "SHAQ Visual Analogue Scale - Raynaud's, Percent Change from Baseline, Mean", "setting": "[2]", "value": "−18.62", "unit": "%"}, {"measurement": "SHAQ Visual Analogue Scale - Raynaud's, Percent Change from Baseline, Median", "setting": "[2]", "value": "−33.33", "unit": "%"}, {"measurement": "SHAQ Alternative Disability Index, Change from Baseline, Mean", "setting": "[3]", "value": 0.083}, {"measurement": "SHAQ Alternative Disability Index, Change from Baseline, Median", "setting": "[3]", "value": 0.000}, {"measurement": "SHAQ Alternative Disability Index, In-Clinic Visit (Day 12), Mean", "setting": "[3]", "value": 0.750}, {"measurement": "SHAQ Alternative Disability Index, In-Clinic Visit (Day 12), Median", "setting": "[3]", "value": 1.000}, {"measurement": "SHAQ Alternative Disability Index, Percent Change from Baseline, Mean", "setting": "[3]", "value": 15.87, "unit": "%"}, {"measurement": "SHAQ Alternative Disability Index, Percent Change from Baseline, Median", "setting": "[3]", "value": 15.87, "unit": "%"}, {"measurement": "SHAQ Visual Analogue Scale - Finger Ulcers, Change from Baseline, Mean", "setting": "[3]", "value": "−0.567"}, {"measurement": "SHAQ Visual Analogue Scale - Finger Ulcers, Change from Baseline, Median", "setting": "[3]", "value": "−0.700"}, {"measurement": "SHAQ Visual Analogue Scale - Finger Ulcers, In-Clinic Visit (Day 12), Mean", "setting": "[3]", "value": 0.367}, {"measurement": "SHAQ Visual Analogue Scale - Finger Ulcers, In-Clinic Visit (Day 12), Median", "setting": "[3]", "value": 0.000}, {"measurement": "SHAQ Visual Analogue Scale - Finger Ulcers, Percent Change from Baseline, Mean", "setting": "[3]", "value": "−69.44", "unit": "%"}, {"measurement": "SHAQ Visual Analogue Scale - Finger Ulcers, Percent Change from Baseline, Median", "setting": "[3]", "value": "−69.44", "unit": "%"}, {"measurement": "SHAQ Visual Analogue Scale - Intestinal Problems, Change from Baseline, Mean", "setting": "[3]", "value": "−2.467"}, {"measurement": "SHAQ Visual Analogue Scale - Intestinal Problems, Change from Baseline, Median", "setting": "[3]", "value": "−3.000"}, {"measurement": "SHAQ Visual Analogue Scale - Intestinal Problems, In-Clinic Visit (Day 12), Mean", "setting": "[3]", "value": 1.467}, {"measurement": "SHAQ Visual Analogue Scale - Intestinal Problems, In-Clinic Visit (Day 12), Median", "setting": "[3]", "value": 0.600}, {"measurement": "SHAQ Visual Analogue Scale - Intestinal Problems, Percent Change from Baseline, Mean", "setting": "[3]", "value": "−66.06", "unit": "%"}, {"measurement": "SHAQ Visual Analogue Scale - Intestinal Problems, Percent Change from Baseline, Median", "setting": "[3]", "value": "−66.06", "unit": "%"}, {"measurement": "SHAQ Visual Analogue Scale - Overall Disease Severity, Change from Baseline, Mean", "setting": "[3]", "value": "−1.067"}, {"measurement": "SHAQ Visual Analogue Scale - Overall Disease Severity, Change from Baseline, Median", "setting": "[3]", "value": "−1.500"}, {"measurement": "SHAQ Visual Analogue Scale - Overall Disease Severity, In-Clinic Visit (Day 12), Mean", "setting": "[3]", "value": 2.433}, {"measurement": "SHAQ Visual Analogue Scale - Overall Disease Severity, In-Clinic Visit (Day 12), Median", "setting": "[3]", "value": 1.900}, {"measurement": "SHAQ Visual Analogue Scale - Overall Disease Severity, Percent Change from Baseline, Mean", "setting": "[3]", "value": "−35.44", "unit": "%"}, {"measurement": "SHAQ Visual Analogue Scale - Overall Disease Severity, Percent Change from Baseline, Median", "setting": "[3]", "value": "−35.44", "unit": "%"}, {"measurement": "SHAQ Visual Analogue Scale - Pain, Change from Baseline, Mean", "setting": "[3]", "value": 0.100}, {"measurement": "SHAQ Visual Analogue Scale - Pain, Change from Baseline, Median", "setting": "[3]", "value": 0.000}, {"measurement": "SHAQ Visual Analogue Scale - Pain, In-Clinic Visit (Day 12), Mean", "setting": "[3]", "value": 2.167}, {"measurement": "SHAQ Visual Analogue Scale - Pain, In-Clinic Visit (Day 12), Median", "setting": "[3]", "value": 2.900}, {"measurement": "SHAQ Visual Analogue Scale - Pain, Percent Change from Baseline, Mean", "setting": "[3]", "value": 5.77, "unit": "%"}, {"measurement": "SHAQ Visual Analogue Scale - Pain, Percent Change from Baseline, Median", "setting": "[3]", "value": 5.77, "unit": "%"}]}
